Measurements from patent US20160338966A1, “Multimicroparticulate pharmaceutical forms foe oral administration” (FLAMEL IRELAND LIMITED, priority 2006, published 2016).

Assay: behavior of agents D in water and in ethanol/water solution 40/60 v/v
Type: physicochemical
Excerpt: Different compounds D are introduced into ajar containing either water (on the left in the Figures) or an ethanol/water solution in a ratio of 40/60 v/v (right jar in the Figures).

| Substance | solubility in water and in ethanol/water | solubilization rate in water versus water/ethanol mixture |
| --- | --- | --- |
| guar gum | soluble in water but not in the water/ethanol mixture |  |
| hydroxypropyl methyl cellulose [hypromellose] |  | higher in water than in the water/ethanol mixture |
